14 compounds from patent US8344139B2, “Process for preparing crystalline polymorphic forms of (6R)-L-erythro-tetrahydrobiopterin dihydrochloride” (Merck Eprova AG, priority 2003, dated 2013) can be followed below.

Data set [1] can be described thus: Hygroscopicity / water adsorption (thermogravimetry, TG-FTIR). The format is physicochemical. The following applies: for hygroscopicity / adsorbed water content: dihydrochloride; for adsorbed water content: water released on heating at 10° C./minute. Here is the method:
1.05 gram of (6R)-L-erythro-tetrahydrobiopterin dihydrochloride are dissolved in 4.0 ml of bi-distilled water at 23±2° C. The solution is filtrated through a 0.22 μm millipore filtration unit and the filtrate is transferred into a 250 ml round flask. The solution in this flask is frozen by placing the flask into a bed with solid carbon dioxide at −78° C. The flask with the frozen content is then connected to a laboratory freeze dryer operating at a starting pressure of about 0.05 mbar. After about 20 hours the freeze drying is complete and the vacuum flask is disconnected from the freeze dryer and about 1.0 g of white, crystalline solid material is obtained. […] The sample begins to decompose above 200° C. TG-FTIR: Thermogravimetric measurements are carried out with a Netzsch Thermo-Micro-balance TG 209 coupled to a Bruker FTIR Spectrometer Vector 22 (sample pans with a pinhole, N2 atmosphere, heating rate 10 K/min).

The nature of data set [2]: Relative stability of the crystal forms as described. To be noted: for relative stability of the crystal form: dihydrochloride.
A short description of data set [3]: Storage of solid forms under defined relative humidity, resulting crystal form. In kind it is physicochemical. The protocol:
Hydrate form C is retained. 71 mg of polymorph form A according to example A1 are stored in air under 52% relative humidity at room temperature for 17 days. […] About 50 mg of polymorph form F according to example A26 are placed on an powder X-ray diffraction sample holder of 0.8 mm thickness (TTK type, obtained form Anton Pear GmbH, Graz, Austria). The prepared sample holder is placed in the closed sample chamber of a Philips X'Pert powder X-ray diffractometer and the sample chamber is purged with nitrogen and partially saturated with water vapour to a resulting relative humidity of about 52%. After an exposure time of about 24 hour a powder X-ray diffraction pattern is recorded.

Data set [4] is described as follows: Phase equilibration / suspension stability tests in solvents, solid form by FT Raman and X-ray diffraction. The following applies: room temperature. The format is physicochemical. Here is the method:
105 mg of polymorph A according to example A1 are suspended in 1.0 ml tertiary butyl methyl ether (TBME). The suspension is stirred under nitrogen atmosphere for about 18 hours at room temperature, filtrated and the white solid residue is then dried under air.
90 mg of polymorph A according to example A1 are suspended in 2.0 ml tetrahydrofuran (THF) and the resulting suspension is stirred in air for five days at room temperature, filtrated and the white solid residue is then dried under air.
The white suspension is stirred for 5 hours at room temperature, filtrated and dried under nitrogen at room temperature.
The white suspension is stirred over night at room temperature, filtrated and then dried under nitrogen at room temperature.
The white suspension is stirred over night at room temperature, filtrated and dried under nitrogen room temperature.
The white suspension is stirred in air over a weekend at room temperature, filtrated and then dried in air at room temperature. […] The white suspension is stirred for about 20 hours at room temperature, filtrated and dried in air at room temperature.
The suspension is stirred for about 20 hours at room temperature under nitrogen atmosphere, filtrated and then drying under nitrogen.
The suspension is stirred at room temperature under nitrogen atmosphere for about 23 hours, filtrated and dried in air.
105 mg of hydrate form D according to example B3 are suspended in 2.0 ml IPA. The suspension is stirred at room temperature for about 18 hours, filtered and the solid then dried in air at room temperature for about 4 hours.
Powder X-ray Diffraction (PXRD): PXRD is performed either on a Philips 1710 or on a Philips X'Pert powder X-ray diffractometer using CuKα radiation. D-spacings are calculated from the 2θ using the wavelength of the CuKα1 radiation of 1.54060 A. The X-ray tube was operated at a Voltage of 45 kV (or 40 kV with X'Pert Instrument), and a current of 45 mA (or 40 mA with X'Pert Instrument). A step size of 0.02°, and a counting time of 2.4 s per step is applied. Generally, 2θ values are within an error of ±0.1-0.2°. The experimental error on the d-spacing values is therefore dependent on the peak location.
Raman spectroscopy: FT-Raman spectra are recorded on a Bruker RFS 100 FT-Raman system with a near infrared Nd:YAG laser operating at 1064 nm and a liquid nitrogen-cooled germanium detector. For each sample, 64 scans with a resolution of 2 cm^−1 are accumulated. Generally; 300 mW laser power is used.

The mark [5] stands for this setting: 52% relative humidity, room temperature, 17 days, dihydrochloride.

Entries after “also recorded” stand apart in the source; their conditions may differ.

As for `C[C@H](O)[C@H](O)[C@H]1CNc2nc(N)[nH]c(=O)c2N1.Cl.Cl` [form I, (6R)-L-erythro-tetrahydrobiopterin dihydrochloride], in data set [1], the hygroscopicity entry is reported as “hygroscopic”.

Consider `C[C@H](O)[C@H](O)[C@H]1CNc2nc(N)[nH]c(=O)c2N1.Cl.Cl` [form J, (6R)-L-erythro-tetrahydrobiopterin dihydrochloride], for which the “relative humidity at which the form transforms back into form E” value in data set [2] was “above 75 % relative humidity”. Also, in data set [1] (listed as polymorph J), the hygroscopicity entry is “slightly hygroscopic”.

For the compound `C[C@H](O)[C@H](O)[C@H]1CNc2nc(N)[nH]c(=O)c2N1.Cl.Cl` [form K, (6R)-L-erythro-tetrahydrobiopterin dihydrochloride], the “relative stability of the crystal form” value in data set [2] (listed as polymorph K) is “less stable than form B at higher temperatures”. Besides, in data set [1] (listed as polymorph K), the hygroscopicity result was “slightly hygroscopic” and the adsorbed water content result is given as “about 2.0 percent by weight”.

For the compound `C[C@H](O)[C@H](O)[C@H]1CNc2nc(N)[nH]c(=O)c2N1.Cl.Cl` [form B, (6R)-L-erythro-tetrahydrobiopterin dihydrochloride], the “crystal form after storage” value in data set [3] (open container under air, 75% relative humidity, 40° C., 5 days) is listed as “still polymorph form B”. For the same compound, the hygroscopicity entry in data set [1] (listed as Polymorph B) is given as “slightly hygroscopic”. Further, the “crystal form after suspension stirring” value in data set [4] (2-Propanol, over night, nitrogen) is “polymorph form B”; in data set [4] (EtOH in air, over a weekend) it was “slightly yellow crystalline solid, polymorph form B”; in data set [4] (EtOH, over night, nitrogen) it was “polymorph form B”; in data set [4] (THF, about 20 hours, nitrogen (slightly yellow solid from the EtOH/air test)), “slightly yellow crystalline solid, polymorph form B”; in data set [4] (acetone, over night, nitrogen), “polymorph form B”; in data set [4] (acetonitrile containing 2% by weight of water, about 20 hours, nitrogen), “polymorph form B”. For the same compound, the “crystal form after suspension stirring” value is listed as “polymorph form B” in data set [4] (ethyl acetate containing 2% by weight of water, about 23 hours, nitrogen) and “polymorph form B” in data set [4] (methanol, 5 hours, nitrogen).

As for `C[C@H](O)[C@H](O)[C@H]1CNc2nc(N)[nH]c(=O)c2N1.Cl.Cl` [form E, (6R)-L-erythro-tetrahydrobiopterin dihydrochloride], the “crystal form after storage” value in data set [3] (setting [5]) is recorded as “retained”. Further, the hygroscopicity entry in data set [1] is reported as “non-hygroscopic”.

For `C[C@H](O)[C@H](O)[C@H]1CNc2nc(N)[nH]c(=O)c2N1.Cl.Cl` [form M, (6R)-L-erythro-tetrahydrobiopterin dihydrochloride], in data set [1], the hygroscopicity entry was “slightly hygroscopic”.

For `C[C@H](O)[C@H](O)[C@H]1CNc2nc(N)[nH]c(=O)c2N1.Cl.Cl` [form C, (6R)-L-erythro-tetrahydrobiopterin dihydrochloride], in data set [3] (setting [5]), the “crystal form after storage” value was “retained”. Also, the “conversion of the crystal form” value in data set [2] (about 40° C. in air and lower relative humidity) was “easily converted to polymorph form B”. Moreover, in data set [1], the hygroscopicity entry is on record as “slightly hygroscopic”.

Consider `C[C@H](O)[C@H](O)[C@H]1CNc2nc(N)[nH]c(=O)c2N1.Cl.Cl` [form A, (6R)-L-erythro-tetrahydrobiopterin dihydrochloride], for which the “crystal form after storage” value in data set [3] (setting [5]) is recorded as “corresponds to hydrate form E”. Also, in data set [1] (listed as polymorph A), the hygroscopicity entry is “slightly hygroscopic”. The “temperature above which the sample begins to decompose” value in data set [1] (thermogravimetry, heating rate 10° C./minute) was “above 200 °C”. Besides, the adsorbed water content result in data set [1] (listed as polymorph A) is given as “about 3 percent by weight”. In addition, the “crystal form after suspension stirring” value in data set [4] (tertiary butyl methyl ether, about 18 hours, nitrogen, dihydrochloride) is reported as “unchanged polymorph form A”; in data set [4] (tertiary butyl methyl ether, about 18 hours, nitrogen, listed as polymorph A, dihydrochloride), “essentially still corresponds to form A”; in data set [4] (tetrahydrofuran, five days, dihydrochloride), “unchanged polymorph form A”; in data set [4] (tetrahydrofuran, five days, listed as polymorph A, dihydrochloride), “still corresponds to form A”.

For the compound `C[C@H](O)[C@H](O)[C@H]1CNc2nc(N)[nH]c(=O)c2N1.Cl.Cl` [form O, (6R)-L-erythro-tetrahydrobiopterin dihydrochloride], the “relative stability of the crystal form” value in data set [2] was “more stable than form F under ambient temperature and humidity conditions”.

Regarding `C[C@H](O)[C@H](O)[C@H]1CNc2nc(N)[nH]c(=O)c2N1.Cl.Cl` [form G, (6R)-L-erythro-tetrahydrobiopterin dihydrochloride], in data set [1], the hygroscopicity entry is listed as “hygroscopic”.

For the compound `C[C@H](O)[C@H](O)[C@H]1CNc2nc(N)[nH]c(=O)c2N1.Cl.Cl` [form N, (6R)-L-erythro-tetrahydrobiopterin dihydrochloride], the hygroscopicity entry in data set [1] is reported as “slightly hygroscopic”.

As for `C[C@H](O)[C@H](O)[C@H]1CNc2nc(N)[nH]c(=O)c2N1.Cl.Cl` [form H, (6R)-L-erythro-tetrahydrobiopterin dihydrochloride], the hygroscopicity entry in data set [1] is “hygroscopic”.

Regarding `C[C@H](O)[C@H](O)[C@H]1CNc2nc(N)[nH]c(=O)c2N1.Cl.Cl` [form D, (6R)-L-erythro-tetrahydrobiopterin dihydrochloride], in data set [2] (ambient temperature), the “stability on exposure to air humidity” value is given as “stable”. The “relative stability of the crystal form” value was “most stable one under the known hydrates at ambient temperatures and a relative humidity of less than 70%; also recorded: most stable form under the hydrates” in data set [2]; “much higher stability than form C” in data set [2] (listed as hydrate D). In addition, the hygroscopicity result in data set [1] is “slightly hygroscopic”. The “crystal form after suspension stirring” value in data set [4] (IPA, about 18 hours) is reported as “unchanged hydrate form D”.

On to `C[C@H](O)[C@H](O)[C@H]1CNc2nc(N)[nH]c(=O)c2N1.Cl.Cl` [form F, (6R)-L-erythro-tetrahydrobiopterin dihydrochloride], for which the “crystal form after exposure to humidity” value in data set [3] (nitrogen with water vapour, relative humidity about 52%, about 24 hour) is reported as “crystalline form O”. Further, in data set [1] (listed as polymorph F), the hygroscopicity result is on record as “slightly hygroscopic” and the adsorbed water content result is listed as “about 3 percent by weight”.
